SMILES strings stand for the structures.

In one assay the test system is HBV (encapsidated HBV DNA, HepG2.2.15 cells). Nature of the assay: HBV replication inhibition assay, BDNA assay in HepG2.2.15 cells. The assay is classed as cell-based. The following applies: Activity in BDNA-assay. On the procedure: HBV replication inhibition by the disclosed compounds were determined in cells infected or transfected with HBV, or cells with stably integrated HBV, such as HepG2.2.15 cells (Sells et al. 1987). In this example, HepG2.2.15 cells were maintained in cell culture medium containing 10% fetal bovine serum (FBS), Geneticin, L-glutamine, penicillin and streptomycin. HepG2.2.15 cells were seeded in 96-well plates at a density of 40,000 cells/well and were treated with serially diluted compounds at a final DMSO concentration of 0.5% either alone or in combination by adding drugs in a checker box format. Cells were incubated with compounds for three days, after which medium was removed and fresh medium containing compounds was added to cells and incubated for another three days. At day 6, supernatant was removed and treated with DNase at 37° C. for 60 minutes, followed by enzyme inactivation at 75° C. for 15 minutes. Encapsidated HBV DNA was released from the virions and covalently linked HBV polymerase by incubating in lysis buffer (Affymetrix QS0010) containing 2.5 μg proteinase K at 50° C. for 40 minutes. HBV DNA was denatured by addition of 0.2 M NaOH and detected using a branched DNA (BDNA) QuantiGene assay kit according to manufacturer recommendation (Affymetrix). HBV DNA levels were also quantified using qPCR, based on amplification of encapsidated HBV DNA extraction with QuickExtraction Solution (Epicentre Biotechnologies) and amplification of HBV DNA using HBV specific PCR probes that can hybridize to HBV DNA and a fluorescently labeled probe for quantitation. In addition, cell viability of HepG2.2.15 cells incubated with test compounds alone or in combination was determined by using CellTitre-Glo reagent according to the manufacturer protocol (Promega). The mean background signal from wells containing only culture medium was subtracted from all other samples, and percent inhibition at each compound concentration was calculated by normalizing to signals from HepG2.2.15 cells treated with 0.5% DMSO using equation E1. % inhibition=(DMSOave−Xi)/DMSOave×100% E1: where DMSOave is the mean signal calculated from the wells that were treated with DMSO control (0% inhibition control) and Xi is the signal measured from the individual wells. EC50 values, effective concentrations that achieved 50% inhibitory effect, were determined by non-linear fitting using Graphpad Prism software (San Diego, Calif.) and equation E2: Y=Y min+(Y max −Y min)/(1+10(Log EC50−X)×HillSlope) E2: […]
where Y represents percent inhibition values and X represents the logarithm of compound concentrations.
Selected disclosed compounds were assayed in the HBV replication assay (BDNA assay), as described above and a representative group of these active compounds is shown in Table 6.
As usually defined, the EC50 is the concentration needed to bring the measured effect to its halfway point. On to `CCC(O)C1CN(C)C(=O)c2c3c(nn2C1)CC(C)N(C(=O)Nc1ccc(F)c(C(F)(F)F)c1)C3` [Compound 107_D2, (3R,8R*)—N-(4-fluoro-3-(trifluoromethyl)phenyl)-8-((R)-1-hydroxypropyl)-3,10-dimethyl-11-oxo-1,3,4,7,8,9,10,11-octahydro-2H-pyrido[4′,3′:3,4]pyrazolo[1,5-a][1,4] diazepine-2-carboxamide], for which the EC50 was in the range of 1 to 100 nM. On the same count and under the same terms, for `C=CC(O)C1CN(C)C(=O)c2c3c(nn2C1)CC(C)N(C(=O)Nc1ccc(F)c(C(F)(F)F)c1)C3` [Compound 122_D2, (3R,8S*)—N-(4-fluoro-3-(trifluoromethyl)phenyl)-8-((S*)-1-hydroxyallyl)-3,10-dimethyl-11-oxo-1,3,4,7,8,9,10,11-octahydro-2H-pyrido[4′,3′:3,4]pyrazolo[1,5-a][1,4]diazepine-2-carboxamide] the value was 100 to 500 nM. In the case of `CCC(O)C1CN(C)C(=O)c2c3c(nn2C1)CCN(C(=O)Nc1cc(Cl)c(F)cc1F)C3` (single isomer, unassigned) [Compound 096_E3, (S*)—N-(5-chloro-2,4-difluorophenyl)-8-((S*)-1-hydroxypropyl)-10-methyl-11-oxo-1,3,4,7,8,9,10,11-octahydro-2H-pyrido[4′,3′:3,4]pyrazolo[1,5-a][1,4]diazepine-2-carboxamide], the EC50 lay in the range of 100 to 500 nM.

As for `CN1CC(CNCC(F)F)Cn2nc3c(c2C1=O)CN(C(=O)Nc1ccc(F)c(C#N)c1F)CC3` (single isomer, unassigned) [Compound 127_E2, (S*)—N-(3-cyano-2,4-difluorophenyl)-8-(((2,2-difluoroethyl)amino)methyl)-10-methyl-11-oxo-1,3,4,7,8,9,10,11-octahydro-2H-pyrido[4′,3′:3,4]pyrazolo[1,5-a][1,4]diazepine-2-carboxamide], the EC50 lay within 1 to 100 nM. In the case of `CN1CC(CNCC(F)F)Cn2nc3c(c2C1=O)CN(C(=O)Nc1ccc(F)c(C(F)(F)F)c1F)CC3` (single isomer, unassigned) [Compound 131_E2, (S*)—N-(2,4-difluoro-3-(trifluoromethyl)phenyl)-8-(((2,2-difluoroethyl)amino)methyl)-10-methyl-11-oxo-1,3,4,7,8,9,10,11-octahydro-2H-pyrido[4′,3′:3,4]pyrazolo[1,5-a][1,4]diazepine-2-carboxamide], the EC50 lay in the range of 100 to 500 nM. On the same count and under the same terms, then `CN1CC(CNCC(F)F)Cn2nc3c(c2C1=O)CN(C(=O)Nc1ccc(F)c(C(F)(F)F)c1)CC3` (single isomer, unassigned) [Compound 119_E2, (S*)-8-(((2,2-difluoroethyl)amino)methyl)-N-(4-fluoro-3-(trifluoromethyl)phenyl)-10-methyl-11-oxo-1,3,4,7,8,9,10,11-octahydro-2H-pyrido[4′,3′:3,4]pyrazolo[1,5-a][1,4]diazepine-2-carboxamide], with 1 to 100 nM.

The same assay, now with this note: Hepatitis B virus, HepG2.2.15, Activity in BDNA-assay.
`CN1CC(CNCC(F)(F)F)Cn2nc3c(c2C1=O)CN(C(=O)Nc1ccc(F)c(C(F)(F)F)c1)CC3` (stereo not drawn) [Compound 121, N-(4-fluoro-3-(trifluoromethyl)phenyl)-10-methyl-11-oxo-8-(((2,2,2-trifluoroethyl)amino)methyl)-1,3,4,7,8,9,10,11-octahydro-2H-pyrido[4′,3′:3,4]pyrazolo[1,5-a][1,4]diazepine-2-carboxamide]: the EC50 was in the range of 1 to 100 nM.

With `CN1CC(C)(CO)Cn2nc3c(c2C1=O)CN(C(=O)Nc1ccc(F)c(Cl)c1)CC3` (stereo not drawn) [Compound 053, N-(3-chloro-4-fluorophenyl)-8-(hydroxymethyl)-8,10-dimethyl-11-oxo-1,3,4,7,8,9,10,11-octahydro-2H-pyrido[4′,3′:3,4]pyrazolo[1,5-a][1,4]diazepine-2-carboxamide], the EC50 lay in the range of 1 to 100 nM.

Regarding `C[C@@H]1Cc2nn3c(c2CN1C(=O)Nc1ccc(F)c(C(F)(F)F)c1)C(=O)N(C)CC(CO)C3` (single isomer, unassigned) [Compound 081_D1, (3R,8S*)—N-(4-fluoro-3-(trifluoromethyl)phenyl)-8-(hydroxymethyl)-3,10-dimethyl-11-oxo-3,4,8,9,10,11-hexahydro-1H-pyrido[4′,3′:3,4]pyrazolo[1,5-a][14]diazepine-2 (7H)-carboxamide], the EC50 was 1 to 100 nM.

The values are drawn from patent US10975077B2 (Novira Therapeutics, Inc., priority 2016, dated 2021).
